The values that follow come from ChEMBL document CHEMBL4311933, “Biochemical and microbiological evaluation of N-aryl urea derivatives against mycobacteria and mycobacterial hydrolases” (Medchemcomm, 2019).

A word on the MIC: it is the lowest concentration that inhibits growth of the organism. The term IC50 denotes the point on the concentration scale where inhibition reaches its midpoint. For orientation: inhibition means the relative decrease from the control value, in per cent. As usually defined, the Ki is the dissociation constant of the complex between target and ligand, obtained from inhibition or displacement.

In brackets after ≈: the same amount, converted by molar mass. Activity calls are given as the source filed them. The calls are words filed in the database; no cut-off is given here.

The target of data set [1] is T1, Carboxylesterase/lipase Culp6 (Mycobacterium tuberculosis (strain ATCC 25618 / H37Rv), UniProt O53581).
T1 sequence (O53581 whole entry): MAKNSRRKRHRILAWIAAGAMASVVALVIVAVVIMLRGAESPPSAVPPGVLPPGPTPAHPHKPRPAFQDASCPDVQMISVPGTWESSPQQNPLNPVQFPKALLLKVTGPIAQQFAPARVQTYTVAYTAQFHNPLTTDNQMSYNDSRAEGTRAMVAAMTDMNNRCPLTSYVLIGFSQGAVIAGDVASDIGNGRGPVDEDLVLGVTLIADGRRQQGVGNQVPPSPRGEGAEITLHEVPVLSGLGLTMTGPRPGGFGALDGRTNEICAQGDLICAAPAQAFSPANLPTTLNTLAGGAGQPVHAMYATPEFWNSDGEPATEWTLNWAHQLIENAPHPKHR
The experiment in a line: Inhibition of recombinant Mycobacterium tuberculosis H37Rv ATCC 25618 Rv3802c expressed in Escherichia coli T7 assessed as residual activity by measuring hydrolysis of resorufin butyrate at 500 uM using resorufin butyrate as substrate preincubated for 15 mins followed by substrate addition relative to control. The note with it: for activity at 500 µM: read-out: Activity.

Data set [2] deals with Mycobacterium tuberculosis. The experiment in a line: Antimycobacterial activity against Mycobacterium tuberculosis H37Rv mc2 6206 after 7 days by resazurin microtiter assay. Conditions: H37Rv mc2 6206, 168 h. The class given is functional. In general terms: Alamar Blue is a resazurin reagent that responds to reducing activity.
Data set [3] deals with Mycobacterium tuberculosis. As to the kind of experiment: Antimycobacterial activity against Mycobacterium tuberculosis H37Ra ATCC 25177 after 7 days by resazurin microtiter assay. The class given is functional. Conditions: H37Ra ATCC 25177, 168 h.
Data set [4] concerns Mycobacteroides abscessus. As to the kind of experiment: Antimycobacterial activity against Mycobacterium abscessus ATCC 19977 after 7 days by resazurin microtiter assay. The class given is functional. Conditions: ATCC 19977, 168 h.
Data set [5] relates to Mycolicibacterium smegmatis. The experiment in a line: Antimycobacterial activity against Mycobacterium smegmatis mc2 155 after 7 days by resazurin microtiter assay. The note with it: MC2 155, 168 h. Format: functional.
Data set [6] concerns L929. The experiment in a line: Cytotoxicity against murine L929 assessed as reduction in cell viability after 24 hrs by MTT assay. The class given is cell-based. The note with it: Mus musculus, L929, 24 h. For orientation: Tetrazolium dyes change colour on reduction, which living cells bring about.
A short description of data set [7]: Selectivity index, ratio of IC50 for murine L929 cells to MIC for Mycobacterium tuberculosis H37Rv mc2 6206. Format: toxicity. Conditions: mouse, read-out: Selectivity Index.
Data set [8] in a line: Selectivity index, ratio of IC50 for murine L929 cells to MIC for Mycobacterium tuberculosis H37Ra ATCC 25177. Format: toxicity. Conditions: mouse, read-out: Selectivity Index.
Data set [9] relates to Mycobacterium tuberculosis H37Rv. The experiment in a line: Inhibition of recombinant Mycobacterium tuberculosis H37Rv ATCC 25618 mycolyltransferase expressed in Escherichia coli T7 at 500 uM using resorufin butyrate as substrate preincubated for 15 mins followed by substrate addition by fluorimetric assay.
The target in data set [10] is T1, Carboxylesterase/lipase Culp6. The experiment in a line: Inhibition of recombinant Mycobacterium tuberculosis H37Rv ATCC 25618 Rv3802c expressed in Escherichia coli T7 assessed as residual activity by measuring hydrolysis of resorufin butyrate at 200 uM using resorufin butyrate as substrate preincubated for 15 mins followed by substrate addition by relative to control. Conditions: read-out: Activity.

In data set [11] the test system is Mycobacterium tuberculosis H37Rv. The experiment in a line: Inhibition of recombinant Mycobacterium tuberculosis H37Rv ATCC 25618 mycolyltransferase expressed in Escherichia coli T7 assessed as residual activity by measuring hydrolysis of resorufin butyrate at 200 uM using resorufin butyrate as substrate preincubated for 15 mins followed by substrate addition by fluorimetric assay relative to control.

The target of data set [12] is T1, Carboxylesterase/lipase Culp6. The experiment in a line: Inhibition of recombinant Mycobacterium tuberculosis H37Rv ATCC 25618 Rv3802c cutinase expressed in Escherichia coli T7 at 500 uM using resorufin butyrate as substrate preincubated for 15 mins followed by substrate addition relative to control.
Data set [13] shares this target. As to the kind of experiment: Inhibition of recombinant Mycobacterium tuberculosis H37Rv ATCC 25618 Rv3802c cutinase expressed in Escherichia coli T7 assessed as inhibition constant using resorufin butyrate as substrate preincubated for 15 mins followed by substrate addition.

For `O=C(NCc1ccco1)Nc1ccc(C(F)(F)F)cc1`, in data set [1], the activity at 500 µM was found to be 82%.
The same measure, in the same setting: with `O=C(NCc1ccco1)Nc1ccc(F)cc1` the figure was 54.9%.
For the compound `O=C(NCC1CCCCC1)Nc1ccc(C(F)(F)F)cc1`, in data set [1], the activity at 500 µM worked out at 83.6%. Besides, the MIC is 1.5 µM (≈ 0.45 µg/mL) in data set [2], 12.5 µM (≈ 3.75 µg/mL) in data set [3], over 100 µM in data set [4] and over 100 µM in data set [5]. In data set [6], the IC50 was found to be 56 µM. Further, the selectivity ratio in data set [7] and in data set [8] was over 20 throughout.
As to `O=C(Nc1ccccc1)N1CCCCC1`, the activity at 500 µM in [1] was found to be 43%. Further, the inhibition entry in [9] was “inactive”.
As for `O=C(NCc1ncc[nH]1)Nc1cc(F)cc(F)c1`, the activity at 200 µM in [10] came to 100%.
On the same count and under the same terms, with `O=C(NCc1nc2ccccc2[nH]1)Nc1cc(F)cc(F)c1` the figure was 20%.
As for `CSc1nncn1C(=O)NCC1CCCCC1`, in data set [10], the activity at 200 µM was 40%.
With `O=C(NCCc1ccccc1)Nc1ccccc1`, in data set [1], the activity at 500 µM was determined as 73.1%. For the same compound, the inhibition result in [9] was “inactive”.
The matching figures for `O=C(NCc1ccco1)Nc1ccccc1`: 38.2% and “inactive”.
Consider `O=C(NCC1CCCCC1)n1nnc2ccccc21`, for which, in data set [10], the activity at 200 µM was found to be 43%.
On to `O=C(NCC1CCCCC1)Nc1ccc(F)cc1`, for which the activity at 500 µM in data set [1] is 66%.
As to `O=C(Nc1ccccc1)NC1CCCC1`, the activity at 500 µM in data set [1] came to 56.2%. Further, the inhibition entry in data set [9] is “inactive”.
Take `O=C(NCc1ccco1)n1nnc2ccccc21`: the activity at 200 µM in [10] was 44%. In addition, the Activity in data set [11] amounted to 80%.
As to `O=C(NCc1ccco1)Nc1cc(F)cc(F)c1`, the activity at 500 µM in data set [1] came to 13%. Further, the inhibition at 500 µM in [12] turned out to be 88%. Also, the Ki in [13] amounted to 5.2 µM.
For the compound `O=C(NCC1CCCCC1)Nc1ccc([N+](=O)[O-])cc1`, the Activity entry in data set [1] (500 µM) is “Active”. The MIC in [2] was 3.12 µM (≈ 0.865 µg/mL); in [3], 25 µM (≈ 6.93 µg/mL); in data set [4], over 100 µM; in data set [5], 15.6 µM (≈ 4.33 µg/mL). In data set [6], the IC50 is 57 µM. Besides, the selectivity ratio in data set [7] and in [8] was over 20 each time.
In the case of `O=C(NCC1CCCCC1)Nc1cc(F)cc(F)c1`, in data set [1], the activity at 500 µM worked out at 72.5%. For the same compound, the MIC turned out to be 3.12 µM (≈ 0.837 µg/mL) in data set [2], 25 µM (≈ 6.71 µg/mL) in data set [3], 25 µM (≈ 6.71 µg/mL) in data set [4] and 62.5 µM (≈ 16.8 µg/mL) in [5]. For the same compound, the IC50 in data set [6] stood at 70 µM. The selectivity ratio in data set [7] and in data set [8] was over 20 in each case.
As for `O=C(Nc1ccccc1)NC1CCCCC1`, the activity at 500 µM in [1] is 84.3%. For the same compound, in data set [9], the inhibition entry is “inactive”.
Regarding `O=C(NCC1CCCCC1)Nc1ccccc1`, the activity at 500 µM in data set [1] was determined as 53%. Moreover, the inhibition entry in data set [9] is “inactive”.
Turning to `O=C(NCC1CCCCC1)Nc1ccc(Br)cc1`, the activity at 500 µM in data set [1] was 100%.
For `O=C(NCc1cccs1)Nc1ccccc1`, the activity at 500 µM in [1] was determined as 50.5%. Besides, the inhibition entry in data set [9] is “inactive”.
For the compound `O=C(NCc1ccco1)n1ccnn1`, in data set [10], the activity at 200 µM came out at 72.5%. Also, the Activity in data set [11] turned out to be 14%.
For the compound `O=C(Nc1cc(F)cc(F)c1)N(Cc1ccco1)Cc1ccco1`, the activity at 200 µM in data set [10] came to 100%.
Still for that read-out and setting: as for `O=C(Nc1cc(F)cc(F)c1)N(Cc1ccc(F)cc1)Cc1ccco1`, the figure is 100%.
